One assay has as its system E. coli K88. In words: ETEC7-infected mouse model: E. coli loads in stool and colon. Format: in vivo. As to conditions: ETEC7-infected ICR mice, COL group, 9000 U orally for 7 days, p < 0.05, n = 6/group. The source says: The animal experiment was approved by the Animal Ethics and Welfare Committee of Huazhong Agricultural University, Wuhan, China (HZAUMO-2023-0264). The animal model was established as in our previous experiment. Female ICR mice (3–4 weeks old) were obtained from the Laboratory Animals Center of Huazhong Agricultural University. After 5 days of adaptation, 36 mice were randomly assigned into 6 groups (n = 6/group), namely, a control group (only phosphate-buffered saline (PBS) treatment), the ETEC7 group (ETEC7 and PBS treatment), the COL group (ETEC7 and 9000 U colistin sulfate treatment), the HP group (ETEC7 and 16 AU rPBD2 treatment), the MP group (ETEC7 and 8 AU rPBD2 treatment), and the LP group (ETEC7 and 4 AU rPBD2 treatment). […]
(§1) Body weight change was calculated as ((final body weight − initial body weight)/initial body weight) × 100%. Diarrhea scores were recorded at 1, 3, 5, and 7 days post infection (dpi) based on the following scoring criteria: (1) normal stool: 0 point; (2) color change/consistency: 1 point; (3) presence of wet tail or mucosa: 2 points; (4) watery stool: 3 points. […] Intestine water content (intestine/carcass ratio) was measured as described previously. The cecum index was calculated as cecum weight (g)/body weight (g). […]

Assay [1] has as its system ETEC7. In words: ETEC7-infected mouse model: ileum morphology (HE staining). As to conditions: ETEC7-infected ICR mice, 7 dpi, n = 6/group. It counts as in vivo.
Excerpt: (§2) The animal experiment was approved by the Animal Ethics and Welfare Committee of Huazhong Agricultural University, Wuhan, China (HZAUMO-2023-0264). The animal model was established as in our previous experiment. Female ICR mice (3–4 weeks old) were obtained from the Laboratory Animals Center of Huazhong Agricultural University. After 5 days of adaptation, 36 mice were randomly assigned into 6 groups (n = 6/group), namely, a control group (only phosphate-buffered saline (PBS) treatment), the ETEC7 group (ETEC7 and PBS treatment), the COL group (ETEC7 and 9000 U colistin sulfate treatment), the HP group (ETEC7 and 16 AU rPBD2 treatment), the MP group (ETEC7 and 8 AU rPBD2 treatment), and the LP group (ETEC7 and 4 AU rPBD2 treatment). The mice were fed antibiotics, including kanamycin (400 mg/L), gentamicin (35 mg/L), vancomycin (45 mg/L), metronidazole (215 mg/L), and colistin (850 U/mL), in drinking water for 72 h and were then fed normal water for another 24 h. All mice were fasted for 12 h and then were orally gavaged with 200 μL 3% NaHCO3 30 min prior to the challenge with 10^9 CFU of ETEC7. The mice were orally infected with ETEC7 once a day for 3 days. […] The control and ETEC7 groups were administrated with the same volume of PBS. All mice were treated with PBS, colistin sulfate, or rPBD2 for 7 continuous days.
as §1, with “points. A score of 1 was considered diarrhea. Fresh stools and 1 cm colon were collected and suspended in sterile PBS. Ten-fold serial dilutions of stool or colon homogenate were plated on MacConkey plates containing 100 μg/mL ampicillin.” for “points.”

For assay [2], the system named is ETEC7. In words: ETEC7-infected mouse model: clinical symptoms (body weight, diarrhea score, intestine/carcass ratio, cecum index). It counts as in vivo, ICR mice. Particulars: 9000 U orally for 7 days, n = 6/group.
Excerpt: as §2
as §1, with “points. A score of 1 was considered diarrhea. Fresh stools and 1 cm colon were collected and suspended in sterile PBS. Ten-fold serial dilutions of stool or colon homogenate were plated on MacConkey plates containing 100 μg/mL ampicillin.” for “points.”

The next assay has as its system IL-10. In words: ETEC7-infected mouse model: serum cytokine ELISA. It counts as in vivo. As to conditions: ETEC7-infected ICR mice, 9000 U orally for 7 days, 7 dpi, among the groups, p > 0.05, n = 6/group.
Excerpt: as §2
as §1, with “points. A score of 1 was considered diarrhea. Fresh stools and 1 cm colon were collected and suspended in sterile PBS. Ten-fold serial dilutions of stool or colon homogenate were plated on MacConkey plates containing 100 μg/mL ampicillin.” for “points.”
In general terms: An ELISA detects its analyte on a solid surface through an enzyme-linked reagent.

Another assay has as its system TNF-α. In words: ETEC7-infected mouse model: serum cytokine ELISA. It counts as in vivo. As to conditions: ETEC7-infected ICR mice, 9000 U (COL group) orally for 7 days, 7 dpi, p < 0.05, n = 6/group.
Excerpt: as §2
as §1, with “points. A score of 1 was considered diarrhea. Fresh stools and 1 cm colon were collected and suspended in sterile PBS. Ten-fold serial dilutions of stool or colon homogenate were plated on MacConkey plates containing 100 μg/mL ampicillin.” for “points.”

Another assay concerns IL-6. In words: ETEC7-infected mouse model: serum cytokine ELISA. It counts as in vivo. As to conditions: ETEC7-infected ICR mice, 9000 U (COL group) orally for 7 days, 7 dpi, p < 0.05, n = 6/group.
Excerpt: as §2
as §1, with “points. A score of 1 was considered diarrhea. Fresh stools and 1 cm colon were collected and suspended in sterile PBS. Ten-fold serial dilutions of stool or colon homogenate were plated on MacConkey plates containing 100 μg/mL ampicillin.” for “points.”

For assay [3] the following is noted: in the presence of 150 mM NaCl or 2.5 mM CaCl2; cited from earlier work. The source says: It has been reported that PBD2 has antibacterial activity against Gram-positive and -negative bacteria. […] When AMPs are used in the animal industry, many factors, including temperature, pH, enzymes, and salt ions, may affect their activities. […] This may allow crude rPBD2 to endure the ...

Where [4] appears, read: 9000 U (COL group) orally for 7 days, p < 0.05.

Where no end group is shown, it is not given here.

For colistin sulfate, the “colonized numbers of E. coli K88 in the colon” value in the assay with E. coli K88 (7 dpi) is “lower than those in the ETEC7 group”. Moreover, the “bacterial loads in feces” value in the assay on E. coli K88 (vs ETEC7 group) was “significantly decreased”. For the same substance, in the assay with ETEC7 [1] (setting [4]), the “VH/CD (villus height/crypt depth, ileum)” value is reported as “significantly increase” and the “villus height (ileum)” value is listed as “significantly increase”. In addition, in the assay with ETEC7 [1] (9000 U orally for 7 days, among the groups, p > 0.05), the “crypt depth (ileum)” value is “no significant differences”. Moreover, the diarrhea scores result with ETEC7 [2] (ETEC7-infected ICR mice, 1, 3, 5, 7 dpi, vs ETEC7 group) was “relative lower diarrhea scores but without significant differences”. Moreover, in the assay with ETEC7 [2] (ETEC7-infected ICR mice, 7 dpi, among the groups), the cecum index result is recorded as “no significant differences”. The final body weight entry with ETEC7 [2] (female ICR mice, ETEC7 10^9 CFU orally once a day for 3 days, 7 dpi, among groups, p > 0.05) is given as “no significant differences”. Besides, the “serum IL-10 levels” value in the assay with IL-10 was “no significant differences”. For the same substance, in the assay on TNF-α, the “serum TNF-α levels” value is “significantly decrease”. Besides, the “serum IL-6 levels” value with IL-6 is “could decrease the levels of IL-6”.
For “synthetic human β-defensin 3 (hBD-3): synthetic human β-defensin 3, literature comparison (GIINTLQKYYCRVRGGRCAVLSCLPKEEQIGKCSTRGRKCCRRKK; ends and bridges not checked; cysteine pairing not given here; UniProt P81534 23-67, looked up)”, in assay [3], the “antibacterial activity in the presence of salts” value is given as “completely abolished”.

Source of the values: PMC12108179, “Porcine β-Defensin 2 Expressed in Pichia pastoris Alleviates Enterotoxigenic Escherichia coli-Induced Intestinal Injury and Inflammatory Response in Mice” (Animals : an Open Access Journal from MDPI, 2025).
